Test results from patent US20040086536A1, “Therapeutic agents and treatment kits for hypertrophic pyloric stenosis” (priority 2002, published 2004).
Where a name gives a salt, the structure may show the parent alone.

Legend:
[1] = tested on: hypertrophic pyloric stenosis; settings: cited from earlier work
[2] = tested on: hypertrophic pyloric stenosis; assay: Treatment of infantile patients with hypertrophic pyloric stenosis (disappearance of vomiting, hospitalization); settings: atropine sulfate 0.1 mg/kg/day iv.
Protocol: In the present treating examples, a solution for intravenous injection of atropine sulfate was used as the anticholinergic agent and a nitroglycerin patch was used as the NO donor.
After confirming that the pH and electrolytes in the blood restore in the normal ranges in individual infantile patients, a daily dosage of atropine sulfate (0.1 mg/kg/day) was divided by the number of milk feeding and the divided dosage of atropine sulfate was administered intravenously 10 minutes before each milk feeding over 3 minutes or longer. Except in the cases where abnormally strong side effects were produced, the dosage amounts for subsequent intravenous injections were not changed principally. […] The minimum dosage amount is 0.04 mg/kg/day.
In parallel with the atropine sulfate intravenous injection, a nitroglycerin transdermal patch (Millisrol Tape (registered trademark)): 5 mg/patch: Nippon Kayaku Co., Ltd.; or Minitro Tape (registered trademark): 5 mg/patch: Nisshin-Kyorin Pharmaceutical Co., Ltd.) was used. […]
To prevent the occurrence of aspiration pneumonia induced by vomiting and the induction of contraction of gastric smooth muscles and pyloric sphincters, isotonic drinking solution was fed orally as the infantile patient wanted until the vomiting subsided. […] The body weight and the daily amount of milk intake were measured every day. […]

For `CN1[C@@H]2CC[C@H]1C[C@@H](OC(=O)C(CO)c1ccccc1)C2` (some centres unmarked) [atropine sulfate (iv.), atropine sulfate], the “time for which the spasm disappears after the administration” value ([1]; atropine sulfate therapy, contraction of the pyloric muscle often reappears afterward) is listed as 20 to 30 min, the effectiveness of treatment ([1]; intravenous injection, needs long term hospitalization) is listed as “high” and the “effectiveness rate of treatment” value ([1]; oral administration) is listed as “less than 50%”. For the same molecule, the “Duration of vomiting (onset of action) after the initiation of the treatment” value [2] was 5 ± 2 days and the duration of hospitalization [2] was 9 ± 2 days.
